Source: patent US12570638B2, “Fused imidazole derivatives as AHR antagonists” (Sail Biomedicines, Inc., priority 2020, dated 2026)

Experiments:
[1] = Caco-2 Permeability Assay; format: in vitro ADME; conditions: human; for Papp A→B at 2 h, 1 μM: Caco-2, pH 7.4, apical to basolateral, read-out: Caco2 Papp (AB); for Papp B→A at 2 h, 1 μM: Caco-2, pH 7.4, basolateral to apical, read-out: Caco2 Papp (BA)
Experimental: Preparation of Caco-2 Cells: 50 μL and 25 mL of cell culture medium were added to each well of the Transwell insert and reservoir, respectively. The HTS transwell plates were incubated at 37° C., 5% CO2 for 1 hour before cell seeding. Caco-2 cells were diluted to 6.86×10^5 cells/mL with culture medium and 50 μL of cell suspension were dispensed into the filter well of the 96-well HTS Transwell plate. Cells were cultivated for 14-18 days in a cell culture incubator at 37° C., 5% CO2, 95% relative humidity. Cell culture medium was replaced every other day, beginning no later than 24 hours after initial plating.
Assessment of Cell Monolayer Integrity: Medium was removed from the reservoir and each Transwell insert and replaced with prewarmed fresh culture medium. Transepithelial electrical resistance (TEER) across the monolayer was measured using Millicell Epithelial Volt-Ohm measuring system (Millipore, USA). The Plate was returned to the incubator once the measurement was done. The TEER value was calculated according to the following equation: TEER measurement (ohms)×Area of membrane (cm^2)=TEER value (ohm·cm^2)
TEER value should be greater than 230 ohm·cm^2, which indicates the well-qualified Caco-2 monolayer.
Preparation of Solutions: 2 mM stock solutions in DMSO of control compounds were prepared and diluted with HBSS (10 mM HEPES, pH 7.4) to get 10 μM working solution. 0.2 mM stock solutions of test compounds in DMSO were prepared and diluted with HBSS (10 mM HEPES, pH 7.4 with 0.5% BSA) to get 1 μM working solution. Metoprolol, erythromycin and cimetidine were used as control compounds.
Performing the Drug Transport Assay: The Caco-2 plate was removed from the incubator. The monolayer was washed twice with pre-warmed HBSS (10 mM HEPES, pH 7.4). The plate was incubated at 37° C. for 30 minutes. To determine the rate of drug transport in the apical to basolateral direction, 125 μL of the working solution was added to the Transwell insert (apical compartment). A 50 μL sample was transferred immediately from the apical compartment to 200 μL of acetonitrile containing IS (100 nM alprazolam, 200 nM Caffeine and 100 nM tolbutamide) in a new 96-well plate as the initial donor sample (A-B) and it was vortexed at 1000 rpm for 10 minutes. The wells in the receiver plate (basolateral compartment) were filled with 235 μL of transport buffer. To determine the rate of drug transport in the basolateral to apical direction, 285 μL of the working solution were added to the receiver plate wells (basolateral compartment). […]
Data analysis: All calculations were carried out using Microsoft Excel. Peak areas were determined from extracted ion chromatograms. […]

[2] = Hepatocyte Stability Assay, human; format: in vitro ADME; conditions: cryopreserved hepatocytes, read-out: Human hepatocyte clearance
Experimental: Preparation of working solutions: 10 mM stock solutions of test compound and positive control were prepared in DMSO. In separate conical tubes, the 10 mM solution of test compound and the positive control were diluted to 100 μM by combining 198 μL of 50% acetonitrile/50% water and 2 μL of 10 mM stock.
Preparation of Hepatocytes: Incubation medium (William's E Medium supplemented with GlutaMAX) and hepatocyte thawing medium were placed in a 37° C. water bath and allowed warming for at least 15 minutes prior to use. A vial of cryopreserved hepatocytes was transferred from storage, ensuring that vials remained at cryogenic temperatures until thawing process ensued. Cells were thawed by placing the vial in a 37° C. water bath and gently shaking the vials for 2 minutes. […] Using an AO/PI Staining, cells were counted and the viable cell density was determined. Cells with poor viability (<75% viability) were determined to be not acceptable for use. […]
Data Analysis: All calculations were carried out using Microsoft Excel. Peak areas were determined from extracted ion chromatograms. In vitro half-life (t1/2) of parent compound was determined by regression analysis of the percent parent disappearance vs. time curve.
The in vitro half-life (in vitro t1/2) was determined from the slope value: in vitro t1/2=0.693/k […]

| Structure (SMILES) | Papp A→B at 2 h, 1 μM [1] | Papp B→A at 2 h, 1 μM [1] | CLint scaled at 1 μM [2] |
| --- | --- | --- | --- |
| Cn1nccc1C(=O)Nc1ccc2nc(-c3ccccc3C(F)(F)F)[nH]c2c1 [A, 1-methyl-N-(2-(2-(trifluoromethyl)phenyl)-1H-benzo[d]imidazol-6-yl)-1H-pyrazole-5-carboxamide] | > 100 nm/s | > 100 nm/s | < 1.2 L/h/kg |
| Cn1ncnc1C(=O)Nc1ccc2nc(-c3ccccc3C(F)(F)F)[nH]c2c1 [Compound H, 1-methyl-N-(2-(2-(trifluoromethyl)phenyl)-1H-benzo[d]imidazol-6-yl)-1H-1,2,4-triazole-5-carboxamide] | > 100 nm/s | > 100 nm/s | < 1.2 L/h/kg |
